In patent EP2046786B1, “POLYMORPHIC FORMS OF ZIPRASIDONE SULFATES” (KRKA, priority 2006, dated 2008):
Structures can show the parent of a compound that is named as a salt.

How the values were obtained:
[1] = Water sorption analysis (0 % RH to 95 % RH, 25°C); assay type: physicochemical; conditions: for release of crystal water at 0 % RH: nitrogen flow rate 200 ml/min; for RH at which water sorption started: two 11-step circles from 0 % RH to 95 % RH
Experimental: An amount of 20 mg of zipasidone hydrogensulfate dihydrate was exposed to a watersorption analysis (Surface Measurement Systems Ltd., London, UK; two complete 11-step circles from 0 % RH to 95 % RH at the temperature 25°C and nitrogen flow rate 200 ml/min; minimal retention time at the step when dm/dt < 0.002% was 10 minutes and maximal 360 minutes) and compared to the same test of Ziprasidone hydrochloride monohydrate.

[2] = Solubility in water (pH 6.8) + 2 % SDS; assay type: physicochemical; conditions: water + 2 % SDS, aqueous with cosolvent or surfactant or cyclodextrin; water (pH 6.8) + 2 % SDS at room temperature

Compound | release of crystal water at 0 % RH [1] | stability to hydratation ([1]; compared with Ziprasidone hydrochloride salt) | RH at which water sorption started [1] [% RH] | solubility [2] [µg/mL]
O.O.O=C1Cc2cc(CCN3CCN(c4nsc5ccccc45)CC3)c(Cl)cc2N1.O=S(=O)(O)O [Ziprasidone hydrogensulfate dihydrate, 5-[2-[4-(1,2-benzisothiazol-3-yl) -1-piperazinyl]ethyl] -6-chloro-1,3-dihydro-2H-indol-2-one hydrogensulfate dihydrate] | does not release crystal water | more stable to hydratation | 50 | 360
O=C1Cc2cc(CCN3CCN(c4nsc5ccccc45)CC3)c(Cl)cc2N1 [Ziprasidone hydrochloride monohydrate, reference compound] | release crystal water | – | 30 | –
